Source: patent publication US20120178738A1, “DIBENZO [B,F] [1,4]OXAZAPINE COMPOUNDS” (ARYX THERAPEUTICS, INC., priority 2007, published 2012)
Like-named read-outs stand apart in the source and are kept apart here.

Tests used:
5-HT2A receptor = molecular target: T1, 5-HT2A receptor (Rattus norvegicus, UniProt P14842); experiment: cell-based
T1 construct: Eight strips of tissue (0.5 cm long) were cut. and were mounted in 10 ml organ baths; tissue Charles River Laboratories; host or cells: rat aorta strips, endothelium removed
Experimental: The rat aorta (approximately 7 cm) was isolated and removed from the animal (male Sprague Dawley rat, Charles River Laboratories, Hollister, Calif.). The endothelium was removed mechanically. Eight strips of tissue (0.5 cm long) were cut. and were mounted in 10 ml organ baths kept at 37° C. with Krebs solution (composition in mM: NaCl (118.2), KCl (4.6), CaCl2 (2.5), MgSO4 (1.2), KH2PO4 (1.2), NaHCO3 (24.8) and dextrose (10.0)) that was constantly aerated with carbogen gas (95% O2/5% CO2) to obtain a pH of 7.4. The tissues were subjected to a resting tension of 2 g (3 times, 15 minutes apart, equilibrated in Krebs solution). The tissues were then washed 15 minutes later. Ten minutes later, the tissues were then exposed to 0.1 μM phenylephrine. At the maximal effect, 1 μM acetylcholine was added to confirm the absence of endothelium and then washed twice, 2 minutes apart.
Contractions were recorded as changes in tension from baseline and expressed as a percentage of the maximum response of the agonist (5-HT) concentration-effect curve. Agonist concentration-response curves were fitted using a nonlinear iterative fitting program (GraphPad Prism) using the relationship of Parker and Waud (Parker, R. B. and Waud, D. R. (1971). Pharmacological estimation of drug-receptor dissociation constants. Statistical evaluation. I. Agonists. J. Pharmacol. Exp. Ther., 177, 1-12). Agonist potency was expressed as EC50 (molar concentration of agonist producing 50% of the maximum response). Concentration-ratios (CRs) were determined from EC50 values in the presence and absence of antagonist and antagonist affinity estimates (pKB and pA2 values) were determined. All data are expressed as mean±s.e. mean.

[1] = molecular target: T2, human D2s dopamine receptors (Homo sapiens, UniProt P14416); experiment: hD2S receptor radioligand binding ([3H]spiperone); details: pKi reported on a scale of 1 through 5
T2 construct: expressed in transfected cells; host or cells: Chinese hamster ovary cells (membranes)
Experimental: (§1) Consistent with standard competition radioligand binding assays, the methodology was based on displacement of radioligand from tissues (or cell lines) bearing the receptor of interest (Cheng, Y. and Prusoff, W. H. (1973). Biochem. Pharmacol. 22, 3099-3108). The measurements were based on the binding of a single concentration of radiolabeled ligand in the presence of various concentrations of unlabeled ligand.
(§2) Tissues (or cellular plasma membrane fractions) were incubated in the presence of radioligand at equilibrium and in the presence of a range of concentrations of the test compounds (which were non-radiolabeled), and the displaced radioligand was separated from the membranes by filtration. Nonspecific binding was assessed by measuring displacement of the radioligand in the presence of a compound known to block binding of the radioligand to the receptor. Finally, the concentration-response relationship for radioligand displacement (corrected for non-specific binding) was used to assess binding of the test compound to the receptor.

[2] = molecular target: T3, human D2L dopamine receptors (Homo sapiens, UniProt P14416); experiment: hD2L receptor radioligand binding ([3H]spiperone); details: pKi reported on a scale of 1 through 5; read-out: D2L (pKi) (converted)
T3 construct: expressed in transfected cells; host or cells: insect Sf9 cells (membranes)
Experimental: as §1, §2

human 5HT1A receptors = molecular target: T4, human 5HT1A receptors (Homo sapiens, UniProt P08908); experiment: h5-HT1A receptor radioligand binding ([3H]8OH-DPAT); details: pKi reported on a scale of 1 through 5
T4 construct: expressed in transfected cells; host or cells: Chinese hamster ovary cells (membranes)
T4 sequence (P08908 1-422): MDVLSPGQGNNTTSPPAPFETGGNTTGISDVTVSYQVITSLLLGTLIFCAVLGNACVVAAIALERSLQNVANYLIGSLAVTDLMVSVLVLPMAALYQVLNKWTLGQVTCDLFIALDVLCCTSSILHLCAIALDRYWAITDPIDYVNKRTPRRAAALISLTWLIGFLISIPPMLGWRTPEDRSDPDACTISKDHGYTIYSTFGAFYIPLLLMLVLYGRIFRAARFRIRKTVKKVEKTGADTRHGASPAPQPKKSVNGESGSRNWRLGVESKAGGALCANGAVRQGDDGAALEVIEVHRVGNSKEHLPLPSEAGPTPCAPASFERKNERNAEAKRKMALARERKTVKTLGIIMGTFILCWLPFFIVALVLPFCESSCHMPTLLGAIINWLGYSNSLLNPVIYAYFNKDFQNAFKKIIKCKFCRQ
Experimental: as §1, §2

human 5HT2C receptors = molecular target: T5, human 5HT2C receptors (Homo sapiens, UniProt P28335); experiment: h5-HT2C receptor radioligand binding ([3H]Mesulergine); details: pKi reported on a scale of 1 through 5
T5 construct: expressed in transfected cells; host or cells: human embryo kidney cells (membranes)
T5 sequence (P28335 33-458): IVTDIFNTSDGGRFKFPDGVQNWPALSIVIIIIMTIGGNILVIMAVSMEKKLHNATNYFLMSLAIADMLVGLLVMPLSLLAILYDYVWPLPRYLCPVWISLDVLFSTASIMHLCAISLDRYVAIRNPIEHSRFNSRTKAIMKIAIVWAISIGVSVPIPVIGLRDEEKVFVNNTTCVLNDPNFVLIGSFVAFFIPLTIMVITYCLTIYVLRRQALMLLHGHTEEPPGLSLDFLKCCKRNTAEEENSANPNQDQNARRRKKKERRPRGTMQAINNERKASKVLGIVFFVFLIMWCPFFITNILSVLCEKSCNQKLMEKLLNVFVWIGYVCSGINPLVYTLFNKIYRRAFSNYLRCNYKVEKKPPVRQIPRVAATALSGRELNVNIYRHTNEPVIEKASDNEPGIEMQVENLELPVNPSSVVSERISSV
Experimental: The measurements were based on the binding of a single concentration of radiolabeled ligand in the presence of various concentrations of unlabeled ligand.
as §2

human M3 receptors = molecular target: T6, human M3 receptors (Homo sapiens, UniProt P20309); experiment: hM3 receptor radioligand binding ([3H]NMS)
T6 construct: expressed in transfected cells; host or cells: Chinese hamster ovary cells (membranes)
Experimental: as §1, §2

human H1 receptors = molecular target: T7, human H1 receptors (Homo sapiens, UniProt P35367); experiment: hH1 receptor radioligand binding ([3H]Pyrilamine); details: pKi reported on a scale of 1 through 5
T7 construct: expressed in transfected cells; host or cells: Chinese hamster ovary cells (membranes)
Experimental: as §1, §2

human 5HT7 receptors = molecular target: T8, human 5HT7 receptors (Homo sapiens, UniProt P34969); experiment: h5-HT7 receptor radioligand binding ([3H]5-CT)
T8 construct: expressed in transfected cells; host or cells: Chinese hamster ovary cells (membranes)
Experimental: as §1, §2

human M1 receptors = molecular target: T9, human M1 receptors (Homo sapiens, UniProt P11229); experiment: hM1 receptor radioligand binding ([3H]NMS); details: pKi reported on a scale of 1 through 5
T9 construct: expressed in transfected cells; host or cells: Chinese hamster ovary cells (membranes)
T9 sequence (P11229 1-460): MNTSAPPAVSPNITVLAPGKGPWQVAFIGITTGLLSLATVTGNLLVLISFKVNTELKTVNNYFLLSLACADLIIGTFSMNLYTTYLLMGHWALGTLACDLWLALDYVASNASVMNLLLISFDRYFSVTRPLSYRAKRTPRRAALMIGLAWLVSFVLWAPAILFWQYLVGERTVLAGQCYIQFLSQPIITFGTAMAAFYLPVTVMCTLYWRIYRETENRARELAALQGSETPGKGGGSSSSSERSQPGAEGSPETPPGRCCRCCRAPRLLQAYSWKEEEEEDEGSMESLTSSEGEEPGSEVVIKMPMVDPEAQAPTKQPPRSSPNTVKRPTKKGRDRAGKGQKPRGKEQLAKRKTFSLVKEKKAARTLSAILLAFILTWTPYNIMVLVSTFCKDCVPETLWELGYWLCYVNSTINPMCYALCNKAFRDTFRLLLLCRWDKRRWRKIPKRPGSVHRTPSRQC
Experimental: as §1, §2

[3] = read-out: 5HT2A (pKb) (converted)
[4] = pKi reported on a scale of 1 through 5, read-out: M3 (pKi) (converted)

T1 sequence (P14842 whole entry): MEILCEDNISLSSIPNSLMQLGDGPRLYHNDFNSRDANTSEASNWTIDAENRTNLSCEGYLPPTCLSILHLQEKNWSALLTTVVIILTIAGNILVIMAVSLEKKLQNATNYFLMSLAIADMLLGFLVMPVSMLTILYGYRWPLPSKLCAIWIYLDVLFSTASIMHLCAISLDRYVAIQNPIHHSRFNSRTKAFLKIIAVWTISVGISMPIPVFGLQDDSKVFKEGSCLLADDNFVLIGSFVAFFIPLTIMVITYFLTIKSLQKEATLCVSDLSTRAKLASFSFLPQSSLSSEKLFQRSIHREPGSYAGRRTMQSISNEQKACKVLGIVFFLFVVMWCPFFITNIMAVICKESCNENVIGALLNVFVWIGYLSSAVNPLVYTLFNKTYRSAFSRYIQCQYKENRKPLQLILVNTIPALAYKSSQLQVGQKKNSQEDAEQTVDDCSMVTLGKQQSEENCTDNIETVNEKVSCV
T2 sequence (P14416 1-414 isoform P14416-2): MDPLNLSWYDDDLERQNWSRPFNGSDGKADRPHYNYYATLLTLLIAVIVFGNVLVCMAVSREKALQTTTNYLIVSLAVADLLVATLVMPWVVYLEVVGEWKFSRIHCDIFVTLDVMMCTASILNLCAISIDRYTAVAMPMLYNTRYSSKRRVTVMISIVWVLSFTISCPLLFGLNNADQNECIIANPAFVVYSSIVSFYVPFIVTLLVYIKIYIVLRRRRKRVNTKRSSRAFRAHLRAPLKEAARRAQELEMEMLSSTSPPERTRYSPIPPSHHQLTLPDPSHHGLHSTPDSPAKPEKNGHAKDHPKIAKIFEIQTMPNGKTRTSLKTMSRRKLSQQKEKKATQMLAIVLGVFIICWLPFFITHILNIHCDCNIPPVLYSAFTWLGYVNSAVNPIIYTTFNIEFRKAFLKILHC
T3 sequence (P14416 whole entry): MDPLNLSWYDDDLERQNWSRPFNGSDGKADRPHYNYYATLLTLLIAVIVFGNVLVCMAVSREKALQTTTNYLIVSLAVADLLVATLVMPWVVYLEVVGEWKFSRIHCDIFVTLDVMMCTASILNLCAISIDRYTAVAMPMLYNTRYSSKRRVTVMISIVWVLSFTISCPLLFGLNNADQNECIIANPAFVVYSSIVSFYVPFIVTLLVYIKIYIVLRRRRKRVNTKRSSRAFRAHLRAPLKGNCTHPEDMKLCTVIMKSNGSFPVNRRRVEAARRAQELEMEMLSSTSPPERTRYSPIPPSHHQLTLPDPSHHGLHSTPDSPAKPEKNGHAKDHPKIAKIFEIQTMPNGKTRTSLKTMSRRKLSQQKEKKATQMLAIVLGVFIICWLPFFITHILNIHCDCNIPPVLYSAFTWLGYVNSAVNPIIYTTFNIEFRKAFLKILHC
T6 sequence (P20309 whole entry): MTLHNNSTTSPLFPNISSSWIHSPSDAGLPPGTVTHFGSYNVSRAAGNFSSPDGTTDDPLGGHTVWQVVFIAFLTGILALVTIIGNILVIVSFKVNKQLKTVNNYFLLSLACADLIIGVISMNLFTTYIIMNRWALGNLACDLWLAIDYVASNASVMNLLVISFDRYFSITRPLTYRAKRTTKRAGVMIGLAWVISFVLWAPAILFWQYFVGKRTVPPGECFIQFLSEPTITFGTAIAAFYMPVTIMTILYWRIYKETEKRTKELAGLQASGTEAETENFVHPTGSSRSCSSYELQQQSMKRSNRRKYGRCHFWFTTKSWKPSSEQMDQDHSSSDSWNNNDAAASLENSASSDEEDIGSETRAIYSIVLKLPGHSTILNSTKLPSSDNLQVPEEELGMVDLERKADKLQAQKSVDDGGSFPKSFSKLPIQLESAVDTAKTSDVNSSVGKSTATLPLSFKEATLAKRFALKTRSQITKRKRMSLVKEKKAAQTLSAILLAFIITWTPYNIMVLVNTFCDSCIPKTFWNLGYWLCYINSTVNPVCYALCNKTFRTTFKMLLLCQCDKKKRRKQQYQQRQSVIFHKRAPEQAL
T7 sequence (P35367 whole entry): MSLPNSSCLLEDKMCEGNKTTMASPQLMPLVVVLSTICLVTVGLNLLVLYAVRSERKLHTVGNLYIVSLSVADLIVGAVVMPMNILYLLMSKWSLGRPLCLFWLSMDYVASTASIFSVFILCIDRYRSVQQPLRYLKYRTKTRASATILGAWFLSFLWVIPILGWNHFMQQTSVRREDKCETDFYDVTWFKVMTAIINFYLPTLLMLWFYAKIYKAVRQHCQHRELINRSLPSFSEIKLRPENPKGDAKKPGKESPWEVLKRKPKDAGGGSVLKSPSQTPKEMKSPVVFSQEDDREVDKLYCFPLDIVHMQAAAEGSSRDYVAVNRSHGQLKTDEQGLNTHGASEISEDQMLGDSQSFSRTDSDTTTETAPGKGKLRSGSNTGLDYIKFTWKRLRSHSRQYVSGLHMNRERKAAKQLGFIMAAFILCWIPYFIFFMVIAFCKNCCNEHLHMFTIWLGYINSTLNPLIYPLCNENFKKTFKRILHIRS
T8 sequence (P34969 whole entry): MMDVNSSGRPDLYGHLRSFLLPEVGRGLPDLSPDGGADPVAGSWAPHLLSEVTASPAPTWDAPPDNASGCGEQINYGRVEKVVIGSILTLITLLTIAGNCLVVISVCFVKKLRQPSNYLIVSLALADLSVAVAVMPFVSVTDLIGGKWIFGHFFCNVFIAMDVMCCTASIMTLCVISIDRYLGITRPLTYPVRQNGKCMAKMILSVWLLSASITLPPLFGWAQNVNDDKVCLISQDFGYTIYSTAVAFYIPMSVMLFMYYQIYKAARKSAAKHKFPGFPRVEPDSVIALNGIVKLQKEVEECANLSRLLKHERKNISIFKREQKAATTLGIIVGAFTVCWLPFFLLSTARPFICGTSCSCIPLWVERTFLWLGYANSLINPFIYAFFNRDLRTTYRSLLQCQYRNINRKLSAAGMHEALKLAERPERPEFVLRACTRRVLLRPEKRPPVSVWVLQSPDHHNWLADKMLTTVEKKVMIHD

SMILES: O=C(O)C[C@@H]1CN(C2=Nc3cc(Cl)ccc3Oc3ccccc32)CCN1 [AB, (R,E)-2-(4-(8-chlorodibenzo[b,f][1,4]oxazepin-11-yl)piperazin-2-yl)acetic acid]
- Kb (5-HT2A receptor; [3]): 0.0316 to 0.0977 µM
- Ki [1]: > 10 µM
- Ki [2]: > 10 µM
- Ki (human 5HT1A receptors): > 10 µM
- Ki (human 5HT2C receptors): 0.1 to 0.977 µM
- Ki (human M3 receptors; [4]): > 10 µM
- Ki (human H1 receptors): 0.1 to 0.977 µM

SMILES: CN1CCN(C2=Nc3cc(Cl)ccc3Oc3ccccc32)C[C@@H]1CC(=O)OC1CCOCC1 [DZ, (S,E)-tetrahydro-2H-pyran-4-yl 2-(4-(8-chlorodibenzo[b,f][1,4]oxazepin-11-yl)-1-methylpiperazin-2-yl)acetate]
- Kb (5-HT2A receptor; [3]): 0.0316 to 0.0977 µM
- Ki [1]: 2.51 to 9.77 µM
- Ki (human 5HT1A receptors): 0.1 to 0.977 µM
- Ki (human 5HT2C receptors): 0.1 to 0.977 µM
- Ki (human M3 receptors; [4]): > 10 µM
- Ki (human 5HT7 receptors; pKi reported on a scale of 1 through 5, read-out: 5HT7 (pKi) (converted)): > 10 µM

SMILES: CCOC(=O)CC1CN(C2=Nc3cc(Cl)ccc3Oc3ccccc32)CCN1C (stereo not drawn) [DN, (E)-ethyl 2-(4-(8-chlorodibenzo[b,f][1,4]oxazepin-11-yl)-1-methylpiperazin-2-yl)acetate]
- Kb (5-HT2A receptor; [3]): 0.0316 to 0.0977 µM
- Ki [1]: 2.51 to 9.77 µM
- Ki [2]: 2.51 to 9.77 µM
- Ki (human 5HT2C receptors): 0.1 to 0.977 µM
- Ki (human M3 receptors; [4]): > 10 µM
- Ki (human H1 receptors): 0.1 to 0.977 µM
- Ki (human M1 receptors): 2.51 to 4.9 µM

SMILES: CCOC(=O)C[C@@H]1CN(C2=Nc3cc(Cl)ccc3Oc3ccccc32)CCN1 [O, (R,E)-ethyl 2-(4-(8-chlorodibenzo[b,f][1,4]oxazepin-11-yl)piperazin-2-yl)acetate]
- Kb (5-HT2A receptor; [3]): 0.0316 to 0.0977 µM
- Ki [1]: 2.51 to 9.77 µM
- Ki [2]: 2.51 to 9.77 µM
- Ki (human 5HT1A receptors): 0.1 to 0.977 µM
- Ki (human 5HT2C receptors): 0.01 to 0.0977 µM
- Ki (human M3 receptors; [4]): > 10 µM
- Ki (human H1 receptors): 0.1 to 0.977 µM

SMILES: CCOC(=O)CC1CN(C2=Nc3ccc(Cl)cc3Oc3ccccc32)CCN1 (stereo not drawn) [H, (E)-ethyl 2-(4-(7-chlorodibenzo[b,f][1,4]oxazepin-11-yl)piperazin-2-yl)acetate]
- Kb (5-HT2A receptor; [3]): 0.0316 to 0.0977 µM
- Ki [1]: 0.631 to 2.45 µM
- Ki [2]: 0.631 to 2.45 µM
- Ki (human 5HT2C receptors): 0.01 to 0.0977 µM
- Ki (human M3 receptors; [4]): > 10 µM
- Ki (human H1 receptors): 0.1 to 0.977 µM
- Ki (human M1 receptors): > 10 µM

SMILES: CN1CCN(C2=Nc3cc(Cl)ccc3Oc3ccccc32)C[C@@H]1CC(=O)N(CC(F)(F)F)CC(F)(F)F [EW, (S,E)-2-(4-(8-chlorodibenzo[b,f][1,4]oxazepin-11-yl)-1-methylpiperazin-2-yl)-N,N-bis(2,2,2-trifluoroethyl)acetamide]
- Kb (5-HT2A receptor; pKb reported on a scale of 1 through 5, read-out: 5HT2A (pKb) (converted)): > 0.1 µM
- Ki [1]: > 10 µM
- Ki (human 5HT1A receptors): 1 to 9.77 µM
- Ki (human 5HT2C receptors): 1 to 9.77 µM
- Ki (human H1 receptors): 0.1 to 0.977 µM
- Ki (human M1 receptors): 5.01 to 9.77 µM

SMILES: O=C(O)CC1CN(C2=Nc3cc(Cl)ccc3Oc3ccccc32)CCN1 (stereo not drawn) [Compound E, (E)-2-(4-(8-chlorodibenzo[b,f][1,4]oxazepin-11-yl)piperazin-2-yl)acetic acid]
- Kb (5-HT2A receptor; [3]): 0.0316 to 0.0977 µM
- Ki [1]: > 10 µM
- Ki [2]: > 10 µM
- Ki (human 5HT1A receptors): 1 to 9.77 µM
- Ki (human 5HT2C receptors): 0.1 to 0.977 µM
- Ki (human M3 receptors; [4]): > 10 µM
- Ki (human H1 receptors): 0.1 to 0.977 µM
- Ki (human M1 receptors): > 10 µM

SMILES: CN1CCN(C2=Nc3cc(Cl)ccc3Oc3ccccc32)C[C@@H]1CC(=O)O[C@@H]1CN2CCC1CC2 [DS, (S)-quinuclidin-3-yl 2-((S)-4-((E)-8-chlorodibenzo[b,f][1,4]oxazepin-11-yl)-1-methylpiperazin-2-yl)acetate]
- Kb (5-HT2A receptor): > 0.1 µM
- Ki [1]: > 10 µM
- Ki (human 5HT1A receptors): 1 to 9.77 µM
- Ki (human 5HT2C receptors): 1 to 9.77 µM
- Ki (human M3 receptors): > 10 µM
- Ki (human 5HT7 receptors): > 10 µM

SMILES: COC(=O)CC1CN(C2=Nc3cc(Cl)ccc3Oc3ccccc32)CCN1 (stereo not drawn) [I, (E)-methyl 2-(4-(8-chlorodibenzo[b,f][1,4]oxazepin-11-yl)piperazin-2-yl)acetate]
- Kb (5-HT2A receptor; [3]): 0.01 to 0.0309 µM
- Ki [1]: 2.51 to 9.77 µM
- Ki [2]: 2.51 to 9.77 µM
- Ki (human 5HT1A receptors): 0.1 to 0.977 µM
- Ki (human 5HT2C receptors): 0.01 to 0.0977 µM
- Ki (human M3 receptors; [4]): > 10 µM
- Ki (human H1 receptors): 0.1 to 0.977 µM
- Ki (human M1 receptors): 5.01 to 9.77 µM

SMILES: COC(=O)C[C@@H]1CN(C2=Nc3cc(Cl)ccc3Oc3ccccc32)CCN1 [Compound P, (R,E)-methyl 2-(4-(8-chlorodibenzo[b,f][1,4]oxazepin-11-yl)piperazin-2-yl)acetate]
- Kb (5-HT2A receptor; [3]): 0.0316 to 0.0977 µM
- Ki [1]: 2.51 to 9.77 µM
- Ki [2]: 2.51 to 9.77 µM
- Ki (human 5HT1A receptors): 1 to 9.77 µM
- Ki (human 5HT2C receptors): 0.1 to 0.977 µM
- Ki (human M3 receptors; [4]): > 10 µM
- Ki (human H1 receptors): 0.1 to 0.977 µM
